Source: paper PMC9602792, “Preclinical evaluation of the epithelial sodium channel inhibitor AZD5634 and implications on human translation” (American Journal of Physiology - Lung Cellular and …, 2022)

Tests used:
[1] = tested on: amiloride-sensitive potential difference; design: method as in PMID 35227647; settings: perfused to the nasal surface, people with CF; cited from earlier work
healthy sheep = test: Mucociliary clearance (99mTc-sulfur colloid) in healthy sheep after nebulized drug; format: in vivo
Description: Twenty-one adult female Florida native sheep (37–54 kg, Fair Meadow Sheep) were used in the present study, once or twice with a washout of at least 1 wk between experiments. Animals were restrained in an upright position in a specialized body harness in modified carts. The head of the animal was immobilized, and after local anesthesia of the nasal passage was induced with 2% lidocaine, the animals were nasally intubated with a standard endotracheal tube (7.5 mm diameter, Mallinckrodt, St. Louis, MO). A flexible bronchoscope was used to guide the tube and verify its position in the trachea. After intubation, the animals were allowed to rest for ∼20 min before administration of any agent.
Nebulized drug or placebo was given as an aerosol where 3 mL volume (compound in 10% EtOH:90% saline) was delivered at a tidal volume of 300 mL. To maximize central deposition in the airways, a dosimeter was used to deliver the compound. The nebulizer was connected to the dosimeter system consisting of a solenoid valve and a source of compressed air (20 psi). The output of the nebulizer was connected to a T-piece, with one end attached to a respirator (Harvard Apparatus Inc., Holliston, MA). The system was activated for 1 s at the onset of the inspiratory cycle of the respirator, which was set at an inspiratory/expiratory ratio of 1:1 and a rate of 20 breaths/min. To evaluate the effect of repeated dosing, AZD5634 was given twice daily for 4 days and MCC was measured 8 h after the 7th dose.
MCC rate was measured by means of aerosolized technetium-labeled sulfur colloid (^99mTC-SC) and nebulized via the same dosimeter system as for the drug administration. […] Aerosol ^99mTC-SC was generated using an Air Life nebulizer (CareFusion, Yorba Linda, CA). Approximately 20 mCi of ^99mTC-SC in a total of 2 mL of sterile saline was placed in the nebulizer. A tidal volume of 500 mL was used to deliver the ^99mTC-SC over 3 min.
Blood was kept on ice until centrifuged (4,000 g, 5 min, 4°C) and plasma (approximately 2 mL) was transferred to two Eppendorf tubes per sample and frozen at −20°C until analyzed. Sodium and potassium concentrations were analyzed at Mount Sinai Medical Center immediately after sampling and before centrifugation (IRMA TruPoint Analysis System). The plasma samples for analysis of drug concentration were shipped on dry ice to AstraZeneca R&D, Mölndal, Gothenburg and analyzed by means of LC-MSMS (001–04 Method for Blood Plasma Analysis).
Rat electrolyte data were analyzed by means of repeated-measures ANCOVA (SAS v.9).

sheep ENaC = test: Ussing chamber short-circuit current (Isc) in sheep bronchial epithelial ALI cultures; format: cell-based; settings: bronchial epithelial cells from healthy sheep, read-out: potency (IC50) on inhibition of ENaC (EC50 in Fig. 1B legend)
Description: Normal human bronchial epithelial cell (HBEC) cultures from healthy donors were procured from MatTek Corporation (Ashland, MA), grown at an ALI on Transwell permeable supports (0.4 µm polycarbonate membrane, 12 mm insert, and Costar Corning), and used to test the in vitro potency of AZD5634. Using the same protocol, sheep ALI cultures were prepared from primary bronchial epithelial cells (native sheep tracheas were obtained from Öströö Sheep Farm, Sweden, and internally processed at AstraZeneca R&D, Gothenburg, Sweden) to validate AZD5634 potency at sheep ENaC. Experiments were performed using modified Ussing chambers containing carboxygenated Krebs solution (95% O2-5% CO2) at 37°C. Cell layers were allowed to equilibrate before being voltage-clamped at 0 mV, and then briefly clamped at 10 mV to assess transepithelial electrical resistance.
All data are presented as means ± SE. Values of n refer to the number of cultures used in each group as appropriate. For normally distributed data, paired or unpaired Student’s t tests were used. For data that were not normally distributed, Mann–Whitney U test and Wilcoxon-matched pairs test were used. […] From these curves, pEC50 and Emax values were taken from which mean values were calculated.

AZD5634
effect on amiloride-sensitive nasal potential difference [1]: acutely inhibited amiloride-sensitive potential difference
MCC effect after repeated administration (healthy sheep; 3 μg/kg bid for 4 days (7 doses), MCC 8 h after 7th dose): effect magnitude was maintained compared with single-dose studies
duration of MCC effect (healthy sheep; 12 μg/kg given 0, 4, 8, 12, 24 h before 99mTc): retained for 8 h, with approximately half left at 12 h and another half of the remaining effect gone by 24 h
dose giving max effect on MCC (healthy sheep; dose-response 1–330 µg/kg, healthy sheep): 0.12 mg/kg
dose giving max efficacy on MCC (healthy sheep; dose-response, healthy sheep): 0.12 mg/kg
effect on MCC (healthy sheep; nebulized 1–330 µg/kg, given just before 99mTc): dose-dependent effect on MCC
peak effect on mucus clearance (augmentation) (healthy sheep; normal sheep in vivo): 30%
IC50 (sheep ENaC): 5.5 nM
